Reference: US8969516B2, “Method of hydrolysis of peptide bond” (priority 2006, dated 2015)

Experiment: MALDI-TOF screening of Ni^2+ dependent hydrolysis in a combinatorial peptide library
Type: physicochemical
Conditions: Ni^2+ 2 mM, pH 8.2, 10 mM Tris, score=24/tm
Procedure, shortened: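 MALDI-TOF read-out: appearance of Ser/Thr-X-His-Z-Lys-Phe-Leu-NH2 product signals, plus loss of substrate signals, checked by eye at 2, 4, 6, 8 h. Conditions: 1 mM peptide mixture, 2 mM Ni2+, 10 mM Tris pH 8.2, 37 or 45 °C.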

[1] = CH3CO-Gly-Ala-Ser-X-His-Z-Lys-Phe-Leu-NH2 library, 37° C.
[2] = CH3CO-Gly-Ala-Ser-X-His-Z-Lys-Phe-Leu-NH2 library, 45° C.
[3] = CH3CO-Gly-Ala-Thr-X-His-Z-Lys-Phe-Leu-NH2 library, 37° C.
[4] = CH3CO-Gly-Ala-Thr-X-His-Z-Lys-Phe-Leu-NH2 library, 45° C.

Substance: Ac-GASMHVKFL-NH2 [SMHV]
- hydrolysis score from MALDI-TOF screening [1]: 3 (a score of 3 for detection at 8 hours)
- hydrolysis score from MALDI-TOF screening [2]: 6 (a score of 6 for detection at 4 hours)

Substance: Ac-GASRHAKFL-NH2 [SRHA]
- hydrolysis score from MALDI-TOF screening [1]: 3 (a score of 3 for detection at 8 hours)
- hydrolysis score from MALDI-TOF screening [2]: 6 (a score of 6 for detection at 4 hours)

Substance: Ac-GATWHNKFL-NH2 [TWHN]
- hydrolysis score from MALDI-TOF screening [3]: 0 (a score of 0 if no trace of the product of hydrolysis was seen after 8 hours of incubation)
- hydrolysis score from MALDI-TOF screening [4]: 0 (a score of 0 if no trace of the product of hydrolysis was seen after 8 hours of incubation)

Substance: Ac-GATPHEKFL-NH2 [TPHE]
- hydrolysis score from MALDI-TOF screening [4]: 0 (a score of 0 if no trace of the product of hydrolysis was seen after 8 hours of incubation)

Substance: Ac-GASYHQKFL-NH2 [SYHQ]
- hydrolysis score from MALDI-TOF screening [1]: 0 (a score of 0 if no trace of the product of hydrolysis was seen after 8 hours of incubation)
- hydrolysis score from MALDI-TOF screening [2]: 0 (a score of 0 if no trace of the product of hydrolysis was seen after 8 hours of incubation)

Substance: Ac-GATTHEKFL-NH2 [TTHE]
- hydrolysis score from MALDI-TOF screening [3]: 0 (a score of 0 if no trace of the product of hydrolysis was seen after 8 hours of incubation)
- hydrolysis score from MALDI-TOF screening [4]: 0 (a score of 0 if no trace of the product of hydrolysis was seen after 8 hours of incubation)

Substance: Ac-GASPHEKFL-NH2 [SPHE]
- hydrolysis score from MALDI-TOF screening [1]: 0 (a score of 0 if no trace of the product of hydrolysis was seen after 8 hours of incubation)
- hydrolysis score from MALDI-TOF screening [2]: 0 (a score of 0 if no trace of the product of hydrolysis was seen after 8 hours of incubation)

Substance: Ac-GASIHGKFL-NH2 [SIHG]
- hydrolysis score from MALDI-TOF screening [1]: 0 (a score of 0 if no trace of the product of hydrolysis was seen after 8 hours of incubation)
- hydrolysis score from MALDI-TOF screening [2]: 0 (a score of 0 if no trace of the product of hydrolysis was seen after 8 hours of incubation)

Substance: Ac-GATQHQKFL-NH2 [TQHQ]
- hydrolysis score from MALDI-TOF screening [3]: 0 (a score of 0 if no trace of the product of hydrolysis was seen after 8 hours of incubation)
- hydrolysis score from MALDI-TOF screening [4]: 0 (a score of 0 if no trace of the product of hydrolysis was seen after 8 hours of incubation)

Substance: Ac-GASWHRKFL-NH2 [SWHR]
- hydrolysis score from MALDI-TOF screening [1]: 3 (a score of 3 for detection at 8 hours)
- hydrolysis score from MALDI-TOF screening [2]: 6 (a score of 6 for detection at 4 hours)

Substance: Ac-GATYHEKFL-NH2 [TYHE]
- hydrolysis score from MALDI-TOF screening [3]: 0 (a score of 0 if no trace of the product of hydrolysis was seen after 8 hours of incubation)
- hydrolysis score from MALDI-TOF screening [4]: 0 (a score of 0 if no trace of the product of hydrolysis was seen after 8 hours of incubation)

Substance: Ac-GASYHFKFL-NH2 [SYHF]
- hydrolysis score from MALDI-TOF screening [1]: 3 (a score of 3 for detection at 8 hours)
- hydrolysis score from MALDI-TOF screening [2]: 4 (a score of 4 for detection at 6 hours)

Substance: Ac-GATQHIKFL-NH2 [TQHI]
- hydrolysis score from MALDI-TOF screening [3]: 0 (a score of 0 if no trace of the product of hydrolysis was seen after 8 hours of incubation)
- hydrolysis score from MALDI-TOF screening [4]: 3 (a score of 3 for detection at 8 hours)

Substance: Ac-GASGHGKFL-NH2 [SGHG]
- hydrolysis score from MALDI-TOF screening [1]: 0 (a score of 0 if no trace of the product of hydrolysis was seen after 8 hours of incubation)
- hydrolysis score from MALDI-TOF screening [2]: 0 (a score of 0 if no trace of the product of hydrolysis was seen after 8 hours of incubation)

Substance: Ac-GATSHTKFL-NH2 [TSHT]
- hydrolysis score from MALDI-TOF screening [3]: 0 (a score of 0 if no trace of the product of hydrolysis was seen after 8 hours of incubation)
- hydrolysis score from MALDI-TOF screening [4]: 0 (a score of 0 if no trace of the product of hydrolysis was seen after 8 hours of incubation)

Substance: Ac-GASKHFKFL-NH2 [SKHF]
- hydrolysis score from MALDI-TOF screening [1]: 4 (a score of 4 for detection at 6 hours)
- hydrolysis score from MALDI-TOF screening [2]: 4 (a score of 4 for detection at 6 hours)

Substance: Ac-GASNHGKFL-NH2 [SNHG]
- hydrolysis score from MALDI-TOF screening [1]: 0 (a score of 0 if no trace of the product of hydrolysis was seen after 8 hours of incubation)
- hydrolysis score from MALDI-TOF screening [2]: 0 (a score of 0 if no trace of the product of hydrolysis was seen after 8 hours of incubation)

Substance: Ac-GATGHWKFL-NH2 [TGHW]
- hydrolysis score from MALDI-TOF screening [3]: 0 (a score of 0 if no trace of the product of hydrolysis was seen after 8 hours of incubation)
- hydrolysis score from MALDI-TOF screening [4]: 0 (a score of 0 if no trace of the product of hydrolysis was seen after 8 hours of incubation)

Substance: Ac-GASYHGKFL-NH2 [SYHG]
- hydrolysis score from MALDI-TOF screening [1]: 0 (a score of 0 if no trace of the product of hydrolysis was seen after 8 hours of incubation)
- hydrolysis score from MALDI-TOF screening [2]: 0 (a score of 0 if no trace of the product of hydrolysis was seen after 8 hours of incubation)

Substance: Ac-GATIHIKFL-NH2 [TIHI]
- hydrolysis score from MALDI-TOF screening [3]: 0 (a score of 0 if no trace of the product of hydrolysis was seen after 8 hours of incubation)
- hydrolysis score from MALDI-TOF screening [4]: 0 (a score of 0 if no trace of the product of hydrolysis was seen after 8 hours of incubation)

Substance: Ac-GASNHEKFL-NH2 [SNHE]
- hydrolysis score from MALDI-TOF screening [1]: 0 (a score of 0 if no trace of the product of hydrolysis was seen after 8 hours of incubation)
- hydrolysis score from MALDI-TOF screening [2]: 0 (a score of 0 if no trace of the product of hydrolysis was seen after 8 hours of incubation)

Substance: Ac-GATKHPKFL-NH2 [TKHP]
- hydrolysis score from MALDI-TOF screening [3]: 0 (a score of 0 if no trace of the product of hydrolysis was seen after 8 hours of incubation)
- hydrolysis score from MALDI-TOF screening [4]: 0 (a score of 0 if no trace of the product of hydrolysis was seen after 8 hours of incubation)

Substance: Ac-GASQHGKFL-NH2 [SQHG]
- hydrolysis score from MALDI-TOF screening [1]: 0 (a score of 0 if no trace of the product of hydrolysis was seen after 8 hours of incubation)
- hydrolysis score from MALDI-TOF screening [2]: 0 (a score of 0 if no trace of the product of hydrolysis was seen after 8 hours of incubation)

Substance: Ac-GATAHAKFL-NH2 [TAHA]
- hydrolysis score from MALDI-TOF screening [3]: 0 (a score of 0 if no trace of the product of hydrolysis was seen after 8 hours of incubation)
- hydrolysis score from MALDI-TOF screening [4]: 0 (a score of 0 if no trace of the product of hydrolysis was seen after 8 hours of incubation)

Substance: Ac-GASHHKKFL-NH2 [SHHK]
- hydrolysis score from MALDI-TOF screening [1]: 6 (a score of 6 for detection at 4 hours)
- hydrolysis score from MALDI-TOF screening [2]: 12 (a score of 12, if it was seen to be partially hydrolysed at 2 hours)

Substance: Ac-GATPHAKFL-NH2 [TPHA]
- hydrolysis score from MALDI-TOF screening [4]: 0 (a score of 0 if no trace of the product of hydrolysis was seen after 8 hours of incubation)

Substance: Ac-GATKHLKFL-NH2 [TKHL]
- hydrolysis score from MALDI-TOF screening [3]: 4 (a score of 4 for detection at 6 hours)
- hydrolysis score from MALDI-TOF screening [4]: 12 (a score of 12, if it was seen to be partially hydrolysed at 2 hours)

Substance: Ac-GATMHNKFL-NH2 [TMHN]
- hydrolysis score from MALDI-TOF screening [3]: 0 (a score of 0 if no trace of the product of hydrolysis was seen after 8 hours of incubation)
- hydrolysis score from MALDI-TOF screening [4]: 0 (a score of 0 if no trace of the product of hydrolysis was seen after 8 hours of incubation)

Substance: Ac-GASPHSKFL-NH2 [SPHS]
- hydrolysis score from MALDI-TOF screening [1]: 0 (a score of 0 if no trace of the product of hydrolysis was seen after 8 hours of incubation)
- hydrolysis score from MALDI-TOF screening [2]: 0 (a score of 0 if no trace of the product of hydrolysis was seen after 8 hours of incubation)

Substance: Ac-GASFHAKFL-NH2 [SFHA]
- hydrolysis score from MALDI-TOF screening [1]: 0 (a score of 0 if no trace of the product of hydrolysis was seen after 8 hours of incubation)
- hydrolysis score from MALDI-TOF screening [2]: 3 (a score of 3 for detection at 8 hours)
